For 16 compounds, TGI results are on record in PubChem BioAssay (NCI).

Among the test systems are U251 CNS; HCT-116 colon; OVCAR-8 ovarian; KM12 colon; NCI-H460 lung; SN12C renal; PC-3 prostate; HL-60(TB) leukemia; NCI-H522 lung; HS 578T breast.
Test in all cases: growth of human tumour cells (NCI), 48 h

Each structure is given as a SMILES string.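 Dose response: 5 concentrations. Exposure: 48 h. Format: 96-well plates. Endpoint: linear interpolation; highest concentration if not reached. At the TGI there is no net growth.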

As to `N[C@@H]1C[C@H](N)c2c(Cl)sc(Cl)c21`, the TGI in the assay with U251 CNS, with HCT-116 colon, in the assay on OVCAR-8 ovarian, with KM12 colon, in the assay on NCI-H460 lung and in the assay on SN12C renal was above 100 µM throughout. In the assay with PC-3 prostate, this compound came in with a TGI above 100 µM.

On to `CN(C)c1ccc(C2CC(=O)CC(c3ccc(N(C)C)cc3)C23C(=O)NC(=O)NC3=O)cc1` (centres undefined), for which the TGI in the assay on HL-60(TB) leukemia, in the assay with U251 CNS, with HCT-116 colon, in the assay with OVCAR-8 ovarian, in the assay on KM12 colon and in the assay with NCI-H460 lung was above 25 µM throughout. The TGI in the assay with NCI-H522 lung, in the assay on SN12C renal and in the assay with PC-3 prostate was above 25 µM each time.

For `CC1CCCc2c(-c3ccc(Cl)cc3)nc(N)c(C#N)c21` (centres undefined), the TGI is above 100 µM with HL-60(TB) leukemia; above 100 µM in the assay on U251 CNS; above 100 µM in the assay on HCT-116 colon; 91.6 µM with OVCAR-8 ovarian; 56.7 µM in the assay on KM12 colon; 81.4 µM in the assay on NCI-H460 lung. For the same compound, the results for the TGI in the assay on HS 578T breast, in the assay on SN12C renal and with PC-3 prostate were above 100 µM, above 100 µM and 82 µM, respectively.

Turning to `CCN(CC)CCCCC1CCN(CC(=O)N2c3ccccc3NC(=O)c3ccccc32)CC1`, the TGI in the assay with HL-60(TB) leukemia, with HCT-116 colon, with OVCAR-8 ovarian, in the assay on KM12 colon, in the assay on NCI-H522 lung and in the assay on SN12C renal was above 100 µM each time.

With `COc1cc(C2c3cccc4cccc(c34)C3CCC(=O)N32)cc(O)c1O` (centres undefined), the TGI with HL-60(TB) leukemia, with U251 CNS, in the assay on HCT-116 colon, in the assay on OVCAR-8 ovarian, in the assay on KM12 colon and with NCI-H460 lung was above 50 µM throughout. The TGI in the assay on SN12C renal and with PC-3 prostate was above 50 µM each time.

`C1=CCN(c2ccccc2)CC1`: the TGI with HL-60(TB) leukemia is 90.1 µM; in the assay on U251 CNS, above 100 µM; in the assay with HCT-116 colon, above 100 µM; with OVCAR-8 ovarian, 81.2 µM; with KM12 colon, above 100 µM; in the assay on NCI-H460 lung, above 100 µM. For the same compound, the TGI in the assay with NCI-H522 lung was 30.4 µM; in the assay with SN12C renal, 87 µM.

On to `COc1ccc(NS(=O)CCc2ccccc2)cc1` (centres undefined), for which the TGI in the assay with HL-60(TB) leukemia, with U251 CNS, with HCT-116 colon, in the assay with OVCAR-8 ovarian, in the assay on KM12 colon and in the assay with NCI-H460 lung was above 100 µM throughout. For the same compound, the TGI in the assay on HS 578T breast, with NCI-H522 lung and in the assay with SN12C renal was above 100 µM throughout.

As to `CSc1nc(C)cc(Nc2ccc(O)c(CN3CCCCC3)c2)n1`, the TGI in the assay on HCT-116 colon, in the assay with OVCAR-8 ovarian, in the assay on KM12 colon, in the assay with HS 578T breast, in the assay on NCI-H522 lung and with SN12C renal was above 100 µM each time.

For `Nc1ccc(N=Nc2ccc(/C=C/c3ccc(N=Nc4ccc(N)c5ccc(S(=O)(=O)O)cc45)cc3S(=O)(=O)O)c(S(=O)(=O)O)c2)c2cc(S(=O)(=O)O)ccc12`, the TGI in the assay with HL-60(TB) leukemia, in the assay on U251 CNS, in the assay on HCT-116 colon, with OVCAR-8 ovarian, with KM12 colon and in the assay on NCI-H460 lung was above 100 µM each time. In addition, the TGI in the assay with NCI-H522 lung and with SN12C renal was above 100 µM each time.

On to `CC(=O)OCC(OC(C)=O)C(OC(C)=O)C(/C=N/N(C(C)=O)S(=O)(=O)c1ccc(/C=C2\NC(=O)NC2=O)cc1)OC(C)=O` (centres undefined), for which the TGI with U251 CNS, with HCT-116 colon, in the assay on OVCAR-8 ovarian, with NCI-H460 lung, in the assay on HS 578T breast and in the assay with SN12C renal was above 100 µM in each case. In the assay with PC-3 prostate, this compound displayed a TGI above 100 µM.

For the compound `CCOC(=O)[C@H]1C[C@@H](C(=O)c2ccccc2)N2N=C(c3ccc(Br)cc3)C=C[C@H]12`, the TGI in the assay with U251 CNS, with HCT-116 colon, in the assay with OVCAR-8 ovarian, in the assay on KM12 colon, in the assay on NCI-H460 lung and in the assay with HS 578T breast was above 100 µM in each case. For the same compound, the TGI in the assay with SN12C renal and in the assay with PC-3 prostate was above 100 µM in each case.

As to `O=C(Nc1ccccc1)N1CCNC1=S`, the TGI with HL-60(TB) leukemia, in the assay on U251 CNS, with HCT-116 colon, in the assay with OVCAR-8 ovarian, in the assay on KM12 colon and in the assay on NCI-H460 lung was above 100 µM each time. The TGI in the assay with HS 578T breast, in the assay with NCI-H522 lung and in the assay with SN12C renal was above 100 µM each time.

In the case of `CC(SC1=CC(=O)c2c(Cl)ccc(O)c2C1=O)C(=O)O` (centres undefined), the TGI with HL-60(TB) leukemia worked out at 12.2 µM; in the assay with U251 CNS, 40.2 µM; in the assay with HCT-116 colon, 34.4 µM; with OVCAR-8 ovarian, 36.3 µM; with KM12 colon, 38.3 µM; with NCI-H460 lung, 69.4 µM. In the assay on SN12C renal, this compound yielded a TGI of 30.9 µM.

Consider `CC(C#N)Nc1ccc(Oc2ccc(C(C)(C)c3ccc(Oc4ccc(NC(C)C#N)cc4)cc3)cc2)cc1` (centres undefined), for which the TGI was above 100 µM with U251 CNS; above 100 µM with HCT-116 colon; above 100 µM with OVCAR-8 ovarian; above 100 µM with KM12 colon; above 100 µM in the assay with NCI-H460 lung; 94 µM with HS 578T breast. Also, the TGI in the assay with SN12C renal and in the assay on PC-3 prostate was above 100 µM each time.

For `C/C(C=O)=C1\C(O)C[C@]1(C)C1CC(C)(C)CC1O` (some centres undefined), the TGI in the assay with HL-60(TB) leukemia, in the assay on U251 CNS, in the assay with HCT-116 colon, in the assay on OVCAR-8 ovarian, in the assay on KM12 colon and in the assay on NCI-H460 lung was above 100 µM throughout. Further, the TGI with NCI-H522 lung and in the assay on SN12C renal was above 100 µM in each case.

Turning to `CCc1cc(Cc2cc(CC)c(NC(=O)C3=CC(=O)CC(c4ccc(OC)cc4)O3)c(CC)c2Cl)c(Cl)c(CC)c1NC(=O)C1=CC(=O)CC(c2ccc(OC)cc2)O1` (centres undefined), the TGI with HL-60(TB) leukemia was determined as 68.1 µM; with U251 CNS, 26.1 µM; with HCT-116 colon it was 31.6 µM; with OVCAR-8 ovarian it was 90.5 µM; with KM12 colon it was 26.9 µM; in the assay on NCI-H460 lung, 32.6 µM. The compound also gave a TGI in the assay with SN12C renal of 39.5 µM.
